According to PubChem BioAssay (NCI):
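Following 48 hours of exposure in 96-well plates, responses at five concentrations were used to interpolate endpoints linearly. GI50 = concentration required for 50% inhibition of growth. TGI marks complete inhibition of growth.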

Experiments:
Assay in all cases: NCI tumour cell line growth inhibition, 48 h
786-0 renal = tested on: 786-0 renal
A498 renal = tested on: A498 renal
A549 NSCLC = tested on: A549 NSCLC
ACHN renal = tested on: ACHN renal
BT-549 breast = tested on: BT-549 breast
CAKI-1 renal = tested on: CAKI-1 renal
CCRF-CEM leukemia = tested on: CCRF-CEM leukemia
COLO 205 colon = tested on: COLO 205 colon
DU-145 prostate = tested on: DU-145 prostate
EKVX NSCLC = tested on: EKVX NSCLC
HCC-2998 colon = tested on: HCC-2998 colon
HCT-116 colon = tested on: HCT-116 colon
HCT-15 colon = tested on: HCT-15 colon
HL-60(TB) leukemia = tested on: HL-60(TB) leukemia
HOP-62 NSCLC = tested on: HOP-62 NSCLC
HOP-92 NSCLC = tested on: HOP-92 NSCLC
HS 578T breast = tested on: HS 578T breast
HT29 colon = tested on: HT29 colon
IGROV1 ovarian = tested on: IGROV1 ovarian
K-562 leukemia = tested on: K-562 leukemia
KM12 colon = tested on: KM12 colon
LOX IMVI melanoma = tested on: LOX IMVI melanoma
M14 melanoma = tested on: M14 melanoma
MALME-3M melanoma = tested on: MALME-3M melanoma
MCF7 breast = tested on: MCF7 breast
MDA-MB-231 breast = tested on: MDA-MB-231 breast
MDA-MB-435 = tested on: MDA-MB-435
MOLT-4 leukemia = tested on: MOLT-4 leukemia
NCI-H226 lung = tested on: NCI-H226 lung
NCI-H23 lung = tested on: NCI-H23 lung
NCI-H460 lung = tested on: NCI-H460 lung
NCI-H522 lung = tested on: NCI-H522 lung
NCI/ADR-RES ovarian = tested on: NCI/ADR-RES ovarian
OVCAR-3 ovarian = tested on: OVCAR-3 ovarian
OVCAR-4 ovarian = tested on: OVCAR-4 ovarian
OVCAR-5 ovarian = tested on: OVCAR-5 ovarian
OVCAR-8 ovarian = tested on: OVCAR-8 ovarian
PC-3 prostate = tested on: PC-3 prostate
RPMI-8226 leukemia = tested on: RPMI-8226 leukemia
RXF 393 renal = tested on: RXF 393 renal
SF-268 CNS = tested on: SF-268 CNS
SF-295 CNS = tested on: SF-295 CNS
SF-539 CNS = tested on: SF-539 CNS
SK-MEL-2 melanoma = tested on: SK-MEL-2 melanoma
SK-MEL-28 melanoma = tested on: SK-MEL-28 melanoma
SK-MEL-5 melanoma = tested on: SK-MEL-5 melanoma
SK-OV-3 ovarian = tested on: SK-OV-3 ovarian
SN12C renal = tested on: SN12C renal
SNB-19 CNS = tested on: SNB-19 CNS
SNB-75 CNS = tested on: SNB-75 CNS
SR leukemia = tested on: SR leukemia
SW-620 colon = tested on: SW-620 colon
T-47D breast = tested on: T-47D breast
TK-10 renal = tested on: TK-10 renal
U251 CNS = tested on: U251 CNS
UACC-257 melanoma = tested on: UACC-257 melanoma
UACC-62 melanoma = tested on: UACC-62 melanoma
UO-31 renal = tested on: UO-31 renal

CC(=O)OCC1OC(OC2=C(CC=C(C)C)C(=O)c3ccccc3C2=O)C(OC(C)=O)C(OC(C)=O)C1OC(C)=O (stereo unspecified)
GI50 (786-0 renal): 14.1 µM | TGI (786-0 renal): 27.3 µM | GI50 (A498 renal): > 33.6 µM | TGI (A498 renal): > 56.9 µM | GI50 (A549 NSCLC): 10.4 µM | TGI (A549 NSCLC): 40 µM | GI50 (ACHN renal): 3.16 µM | TGI (ACHN renal): 10.1 µM | GI50 (BT-549 breast): 2.25 µM | TGI (BT-549 breast): 6.95 µM | GI50 (CAKI-1 renal): 6.55 µM | TGI (CAKI-1 renal): 17.7 µM | GI50 (CCRF-CEM leukemia): 3.83 µM | TGI (CCRF-CEM leukemia): > 100 µM | GI50 (COLO 205 colon): 11.5 µM | TGI (COLO 205 colon): 24.2 µM | GI50 (DU-145 prostate): 10.9 µM | TGI (DU-145 prostate): 22.9 µM | GI50 (EKVX NSCLC): 2.81 µM | TGI (EKVX NSCLC): 11.6 µM | GI50 (HCC-2998 colon): 8.05 µM | TGI (HCC-2998 colon): 20.5 µM | GI50 (HCT-116 colon): 1.6 µM | TGI (HCT-116 colon): 3.05 µM | GI50 (HCT-15 colon): 3.91 µM | TGI (HCT-15 colon): 18.1 µM | GI50 (HL-60(TB) leukemia): 2.91 µM | TGI (HL-60(TB) leukemia): 6.62 µM | GI50 (HOP-62 NSCLC): 18 µM | TGI (HOP-62 NSCLC): 33.6 µM | GI50 (HOP-92 NSCLC): 1.52 µM | TGI (HOP-92 NSCLC): 3.77 µM | GI50 (HS 578T breast): 5.21 µM | TGI (HS 578T breast): > 32.6 µM | GI50 (HT29 colon): 15.3 µM | TGI (HT29 colon): 36.7 µM | GI50 (IGROV1 ovarian): 3.47 µM | TGI (IGROV1 ovarian): 8.21 µM | GI50 (K-562 leukemia): 2.72 µM | TGI (K-562 leukemia): > 30.4 µM | GI50 (KM12 colon): 2.26 µM | TGI (KM12 colon): 4.89 µM | GI50 (LOX IMVI melanoma): 2.58 µM | TGI (LOX IMVI melanoma): 8.01 µM | GI50 (M14 melanoma): 5.67 µM | TGI (M14 melanoma): 18.2 µM | GI50 (MALME-3M melanoma): 4.96 µM | TGI (MALME-3M melanoma): 19.6 µM | GI50 (MCF7 breast): 2.06 µM | TGI (MCF7 breast): 4.73 µM | GI50 (MDA-MB-231 breast): 2.63 µM | TGI (MDA-MB-231 breast): 8.41 µM | GI50 (MDA-MB-435): 2.9 µM | TGI (MDA-MB-435): 9.09 µM | GI50 (MOLT-4 leukemia): 2.5 µM | TGI (MOLT-4 leukemia): 6.59 µM | GI50 (NCI-H226 lung): 5.58 µM | TGI (NCI-H226 lung): 28.3 µM | GI50 (NCI-H23 lung): 4.13 µM | TGI (NCI-H23 lung): 16.9 µM | GI50 (NCI-H460 lung): 4.12 µM | TGI (NCI-H460 lung): 15.5 µM | GI50 (NCI-H522 lung): 1.88 µM | TGI (NCI-H522 lung): 4.85 µM | GI50 (NCI/ADR-RES ovarian): 3.07 µM | TGI (NCI/ADR-RES ovarian): 10.2 µM | GI50 (OVCAR-3 ovarian): 1.93 µM | TGI (OVCAR-3 ovarian): 3.58 µM | GI50 (OVCAR-4 ovarian): 2.31 µM | TGI (OVCAR-4 ovarian): 6.7 µM | GI50 (OVCAR-5 ovarian): 4.57 µM | TGI (OVCAR-5 ovarian): 16.2 µM | GI50 (OVCAR-8 ovarian): 3.23 µM | TGI (OVCAR-8 ovarian): 11.9 µM | GI50 (PC-3 prostate): 1.97 µM | TGI (PC-3 prostate): 6.08 µM | GI50 (RPMI-8226 leukemia): 2.03 µM | TGI (RPMI-8226 leukemia): 5.25 µM | GI50 (RXF 393 renal): 3.76 µM | TGI (RXF 393 renal): 8.32 µM | GI50 (SF-268 CNS): 4.23 µM | TGI (SF-268 CNS): 15.5 µM | GI50 (SF-295 CNS): 3.67 µM | TGI (SF-295 CNS): 12.7 µM | GI50 (SF-539 CNS): 2.84 µM | TGI (SF-539 CNS): 9.9 µM | GI50 (SK-MEL-2 melanoma): 2.46 µM | TGI (SK-MEL-2 melanoma): 5.67 µM | GI50 (SK-MEL-28 melanoma): 5.22 µM | TGI (SK-MEL-28 melanoma): 16.9 µM | GI50 (SK-MEL-5 melanoma): 2.24 µM | TGI (SK-MEL-5 melanoma): 5.15 µM | GI50 (SK-OV-3 ovarian): 12.9 µM | TGI (SK-OV-3 ovarian): 25.9 µM | GI50 (SN12C renal): 7.01 µM | TGI (SN12C renal): 23.9 µM | GI50 (SNB-19 CNS): 6.28 µM | TGI (SNB-19 CNS): 16.2 µM | GI50 (SNB-75 CNS): 3.35 µM | TGI (SNB-75 CNS): 11.4 µM | GI50 (SR leukemia): 3.55 µM | TGI (SR leukemia): 51.1 µM | GI50 (SW-620 colon): 2.78 µM | TGI (SW-620 colon): 9.18 µM | GI50 (T-47D breast): 1.93 µM | TGI (T-47D breast): 4.24 µM | GI50 (TK-10 renal): 15.1 µM | TGI (TK-10 renal): 29.8 µM | GI50 (U251 CNS): 2.92 µM | TGI (U251 CNS): 11.5 µM | GI50 (UACC-257 melanoma): 3.75 µM | TGI (UACC-257 melanoma): 10.3 µM | GI50 (UACC-62 melanoma): 2.45 µM | TGI (UACC-62 melanoma): 7.15 µM | GI50 (UO-31 renal): 2.68 µM | TGI (UO-31 renal): 10.7 µM
